Measurements taken from PubChem BioAssay (NCI).
“And” between values parts separate entries of the source, which are not always exact repeats. Equal entries are not always repeated.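 48-hour exposure; five concentrations; linearly interpolated endpoints. GI50 = concentration required for 50% inhibition of growth. Definition used: TGI = concentration required for complete inhibition of growth.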

Tests used:
Assay in all cases: NCI anticancer screen, dose series, 48 h
[1] = system: RXF 393 renal
[2] = system: IGROV1 ovarian
[3] = system: DMS 114 small cell lung
[4] = system: ACHN renal
[5] = system: SK-OV-3 ovarian
[6] = system: U251 CNS
[7] = system: SNB-78 CNS
[8] = system: SK-MEL-28 melanoma
[9] = system: HCT-116 colon
[10] = system: CCRF-CEM leukemia
[11] = system: EKVX NSCLC
[12] = system: UACC-62 melanoma
[13] = system: OVCAR-5 ovarian
[14] = system: SF-268 CNS
[15] = system: SR leukemia
[16] = system: NCI-H23 lung
[17] = system: NCI-H522 lung
[18] = system: MOLT-4 leukemia
[19] = system: KM12 colon
[20] = system: UO-31 renal
[21] = system: TK-10 renal
[22] = system: HOP-92 NSCLC
[23] = system: A549 NSCLC
[24] = system: RXF-631 renal
[25] = system: SNB-19 CNS
[26] = system: HL-60(TB) leukemia
[27] = system: DU-145 prostate
[28] = system: SNB-75 CNS
[29] = system: HOP-62 NSCLC
[30] = system: HOP-18 NSCLC
[31] = system: M19-MEL melanoma
[32] = system: SN12C renal
[33] = system: 786-0 renal
[34] = system: KM20L2 colon
[35] = system: K-562 leukemia
[36] = system: OVCAR-8 ovarian
[37] = system: LOX IMVI melanoma
[38] = system: DMS 273 small cell lung
[39] = system: OVCAR-3 ovarian
[40] = system: PC-3 prostate
[41] = system: OVCAR-4 ovarian
[42] = system: SK-MEL-2 melanoma
[43] = system: LXFL 529 NSCLC
[44] = system: SF-539 CNS
[45] = system: RPMI-8226 leukemia
[46] = system: DLD-1 colon
[47] = system: HT29 colon
[48] = system: A498 renal
[49] = system: HCT-15 colon
[50] = system: NCI-H226 lung
[51] = system: SW-620 colon
[52] = system: MALME-3M melanoma
[53] = system: XF 498 CNS
[54] = system: M14 melanoma
[55] = system: SK-MEL-5 melanoma
[56] = system: COLO 205 colon
[57] = system: UACC-257 melanoma
[58] = system: CAKI-1 renal
[59] = system: SF-295 CNS
[60] = system: HCC-2998 colon
[61] = system: NCI-H460 lung

C=CC1C2=C(C(=O)NCC2)C2OC(O)C3=C(CCNC3=O)C2C1C (centres undefined)
TGI [1]: > 100 µM | TGI [2]: > 100 µM | TGI [3]: > 100 µM | TGI [4]: > 100 µM | TGI [5]: > 100 µM | TGI [6]: > 100 µM | TGI [7]: > 100 µM | TGI [8]: > 100 µM | TGI [9]: > 100 µM | TGI [10]: > 100 µM | TGI [11]: > 100 µM | TGI [12]: > 100 µM | TGI [13]: > 100 µM | TGI [14]: > 100 µM | TGI [15]: > 100 µM | TGI [16]: > 100 µM | TGI [17]: > 100 µM | TGI [18]: > 100 µM | TGI [19]: > 100 µM | TGI [20]: > 100 µM | TGI [21]: > 100 µM | TGI [22]: > 100 µM | TGI [23]: > 100 µM | TGI [24]: > 100 µM | TGI [25]: > 100 µM | TGI [26]: > 100 µM

CCOC(=O)CCC(NC(=O)c1ccc(N=Cc2nc3cc(C(F)(F)F)ccc3nc2-c2ccccc2)cc1)C(=O)OCC (centres undefined)
GI50 [1]: 3.1 µM | TGI [1]: 17.2 µM and 20.2 µM | TGI [27]: 50 µM | GI50 [28]: 3.64 µM | TGI [28]: 13 µM and 14.1 µM | GI50 [29]: 16.3 µM | TGI [29]: 50 µM and 40.6 µM | TGI [30]: > 100 µM | GI50 [2]: > 100 µM | TGI [2]: 50 µM and > 100 µM | TGI [3]: > 100 µM | GI50 [31]: > 100 µM | TGI [31]: > 100 µM | GI50 [32]: > 100 µM | TGI [32]: > 100 µM | GI50 [33]: 30.8 µM | TGI [33]: 18.9 µM and > 100 µM | GI50 [34]: > 100 µM | TGI [34]: > 100 µM | GI50 [4]: 46.3 µM | TGI [4]: 50 µM and > 100 µM | GI50 [35]: > 100 µM | TGI [35]: > 100 µM | GI50 [5]: 14.1 µM | TGI [5]: 23.2 µM and 38.2 µM | GI50 [6]: 9.75 µM | TGI [6]: 19.4 µM and 57.1 µM | GI50 [7]: 18.1 µM | TGI [7]: 32 µM and 98.8 µM | GI50 [36]: > 100 µM | TGI [36]: 27.4 µM and > 100 µM | GI50 [37]: > 100 µM | TGI [37]: 50 µM and > 100 µM | TGI [38]: > 100 µM | GI50 [8]: > 100 µM | TGI [8]: > 100 µM | GI50 [39]: > 100 µM | TGI [39]: 50 µM and > 100 µM | TGI [40]: > 50 µM | GI50 [9]: 44.7 µM | TGI [9]: 19.4 µM and > 100 µM | GI50 [10]: > 100 µM | TGI [10]: > 100 µM | GI50 [41]: > 100 µM | TGI [41]: 50 µM and > 100 µM | GI50 [42]: 37.7 µM | TGI [42]: 34.7 µM and > 100 µM | GI50 [11]: > 100 µM | TGI [11]: 50 µM and > 100 µM | GI50 [43]: > 100 µM | TGI [43]: 50 µM and > 100 µM | GI50 [44]: 6.03 µM | TGI [44]: 45.7 µM and 28.4 µM | GI50 [45]: > 100 µM | TGI [45]: > 100 µM | GI50 [46]: > 100 µM | TGI [46]: > 100 µM | GI50 [12]: 61.6 µM | TGI [12]: 40.7 µM and > 100 µM | GI50 [47]: > 100 µM | TGI [47]: > 100 µM | TGI [48]: 75 µM | GI50 [49]: > 100 µM | TGI [49]: > 100 µM | GI50 [50]: > 100 µM | TGI [50]: > 100 µM | GI50 [13]: > 100 µM | TGI [13]: > 100 µM | GI50 [14]: 22.9 µM | TGI [14]: 31.8 µM and > 100 µM | GI50 [51]: > 100 µM | TGI [51]: > 100 µM | GI50 [15]: > 100 µM | TGI [15]: > 100 µM | GI50 [16]: 28.9 µM | TGI [16]: 21.6 µM and > 100 µM | GI50 [52]: > 100 µM | TGI [52]: 22.7 µM and > 100 µM | GI50 [17]: 21.5 µM | TGI [17]: 50 µM and > 100 µM | TGI [53]: 11.7 µM | GI50 [18]: > 100 µM | TGI [18]: > 100 µM | GI50 [54]: > 100 µM | TGI [54]: 50 µM and > 100 µM | GI50 [19]: > 100 µM | TGI [19]: 50 µM and > 100 µM | GI50 [55]: > 100 µM | TGI [55]: 50 µM and > 100 µM | GI50 [56]: > 100 µM | TGI [56]: 50 µM and > 100 µM | GI50 [57]: > 100 µM | TGI [57]: > 100 µM | GI50 [58]: > 100 µM | TGI [58]: 50 µM and > 100 µM | GI50 [20]: > 100 µM | TGI [20]: > 100 µM | GI50 [59]: 71.9 µM | TGI [59]: 31.8 µM and > 100 µM | GI50 [21]: 21.6 µM | TGI [21]: 29.5 µM and 58.2 µM | GI50 [60]: > 100 µM | TGI [60]: > 100 µM | GI50 [22]: 12.5 µM | TGI [22]: 18.3 µM and 45.8 µM | GI50 [23]: > 100 µM | TGI [23]: 50 µM and > 100 µM | GI50 [25]: 8.51 µM | TGI [25]: 29.2 µM and 31.9 µM | GI50 [26]: 65.3 µM | TGI [26]: 50 µM and > 100 µM | GI50 [61]: > 100 µM | TGI [61]: 50 µM and > 100 µM
